Measurements reported in the supplement of paper PMC10307832.

Compound: C1=CC2=C(C=C(C(=C2N=C1)O)N=NC3=CC4=C(C=C3)C=C(C=C4)S(=O)(=O)O)S(=O)(=O)O + Cc1nc(NC(=O)N2CCC[C@H]2C(N)=O)sc1-c1ccnc(C(C)(C)C(F)(F)F)c1 [Alpelisib] (partner 2 µM)
Experiment: relative viability (nuclei count vs DMSO), 5 days (fraction); higher = more cells survive
Settings: first compound 0.08 µM
Outline: (§1)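 After 5 days of treatment, lung cancer cells in 1536-well plates were fixed and stained in a single step (final 0.05% Triton X-100, 1% formaldehyde, 1 ug/ml Hoechst) and their nuclei counted on 4× images. Treatment had been applied by pin tool the day after seeding as one drug alone or as a fixed anchor-drug dose with five library-drug doses (not always all listed) in √10 steps. Relative viability is the nuclei count of treated wells divided by that of vehicle wells, and values are medians of duplicate plates.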

Cell Line	relative viability
COR-L 105	1.05
IA-LM	0.85
LOU-NH91	0.783
NCI-H2170	0.872
NCI-H2405	0.805
HOP-62	1.27
HCC-44	0.867
A549	0.733
LU99A	0.608
BEN	1.26
HARA	0.907
HCC-78	0.406
NCI-H322M	0.917
NCI-H2009	1.19
NCI-H1299	0.985
NCI-H1563	0.931
ABC-1	1.14

Same assay, conditions: first compound 0.253 µM

Cell Line	relative viability
NCI-H727	0.578
EBC-1	0.854
NCI-H1703	0.266
NCI-H1993	0.682
SW 1573	0.727
NCI-H838	0.959
LCLC-103H	0.948
NCI-H520	0.846
NCI-H2126	0.738
EMC-BAC-2	0.75
NCI-H2085	0.989
Calu-6	0.965
HCC-366	0.344
NCI-H1666	0.837
NCI-H596	0.454
LK-2	1.1
NCI-H2087	0.888
SK-MES-1	0.845
H3255	0.698

Cell Line	relative viability
COR-L23	0.691
COR-L 105	1.03
IA-LM	0.561
LOU-NH91	0.744
NCI-H2170	0.802
NCI-H2405	0.758
HOP-62	1.14
HCC-44	0.786
A549	0.708
LU99A	0.488
BEN	0.962
HARA	0.873
HCC-78	0.325
NCI-H322M	0.82
LCLC-97TM1	0.296
NCI-H2009	1.05
NCI-H1299	1.04
NCI-H1563	0.94
ABC-1	0.967

Same assay, conditions: first compound 0.8 µM

Cell Line	relative viability
NCI-H727	0.537
EBC-1	0.743
NCI-H1703	0.39
NCI-H1993	0.747
SW 1573	0.775
NCI-H838	1.05
LCLC-103H	0.945
NCI-H520	0.923
NCI-H2126	0.779
EMC-BAC-2	0.711
NCI-H2085	1.05
Calu-6	1.1
HCC-366	0.389
NCI-H1666	1.05
NCI-H596	0.575
LK-2	1.12
NCI-H2087	1.08
SK-MES-1	0.824
H3255	0.717

Cell Line	relative viability
COR-L23	0.728
COR-L 105	1.26
IA-LM	0.751
LOU-NH91	0.703
NCI-H2170	0.78
NCI-H2405	0.838
HOP-62	1.19
HCC-44	0.779
A549	0.665
LU99A	0.422
BEN	0.847
HARA	0.791
HCC-78	0.319
NCI-H322M	0.687
NCI-H2009	1.1
NCI-H1299	1.01
NCI-H1563	1.07
ABC-1	1.03

Same assay, conditions: first compound 2.53 µM

Cell Line	relative viability
NCI-H727	0.609
EBC-1	0.813
NCI-H1703	0.385
NCI-H1993	0.705
SW 1573	0.761
NCI-H838	1.05
LCLC-103H	0.899
NCI-H520	0.869
NCI-H2126	0.724
EMC-BAC-2	0.766
NCI-H2085	1
Calu-6	0.988
HCC-366	0.401
NCI-H1666	0.994
NCI-H596	0.475
LK-2	1.08
NCI-H2087	0.977
SK-MES-1	0.944
H3255	0.775

Cell Line	relative viability
COR-L23	0.704
COR-L 105	0.966
IA-LM	0.965
LOU-NH91	0.761
NCI-H2170	0.82
NCI-H2405	0.886
HOP-62	0.817
HCC-44	0.893
A549	0.728
LU99A	0.582
BEN	1.04
HARA	0.894
HCC-78	0.345
NCI-H322M	0.846
LCLC-97TM1	0.248
NCI-H2009	1.16
NCI-H1299	0.997
NCI-H1563	1.11
ABC-1	0.869

Same assay, conditions: first compound 8 µM

Cell Line	relative viability
NCI-H727	0.567
EBC-1	1.03
NCI-H1703	0.409
NCI-H1993	0.701
SW 1573	0.797
NCI-H838	0.97
LCLC-103H	1.14
NCI-H520	0.995
NCI-H2126	0.768
EMC-BAC-2	0.696
NCI-H2085	0.913
Calu-6	1.04
HCC-366	0.439
NCI-H1666	1.04
NCI-H596	0.482
LK-2	0.935
NCI-H2087	0.989
SK-MES-1	0.847
H3255	0.712

Cell Line	relative viability
COR-L23	0.593
COR-L 105	1.08
IA-LM	0.832
LOU-NH91	0.675
NCI-H2170	0.76
NCI-H2405	0.722
HOP-62	0.704
HCC-44	0.893
A549	0.662
LU99A	0.514
BEN	0.932
HARA	0.845
HCC-78	0.266
NCI-H322M	0.814
LCLC-97TM1	0.296
NCI-H2009	1.1
NCI-H1299	1.05
NCI-H1563	1.1
ABC-1	1.22

Compound: O=C(NC1CCNCC1)c1n[nH]cc1NC(=O)c1c(Cl)cccc1Cl [AT-7519] + CC(=O)Nc1cccc(-n2c(=O)n(C3CC3)c(=O)c3c(Nc4ccc(I)cc4F)n(C)c(=O)c(C)c32)c1 [Trametinib] (partner 0.02 µM)
Experiment: as above
Settings: first compound 0.01 µM
Outline: as §1

Cell Line	relative viability
NCI-H2342	0.779
NCI-H727	0.34
NCI-H1650	0.634
NCI-H1993	0.445
SW 1573	0.603
NCI-H838	0.475
LCLC-103H	0.686
NCI-H520	0.741
NCI-H2126	0.583
EMC-BAC-2	0.92
NCI-H2085	0.468
HCC-366	0.323
NCI-H1666	0.871
NCI-H596	0.86
LK-2	0.643
NCI-H2087	0.241
NCI-H1648	0.39
SK-MES-1	0.535

Cell Line	relative viability
H3255	0.53
COR-L23	0.83
COR-L 105	0.438
LOU-NH91	0.805
ChaGo-K-1	0.949
NCI-H2170	0.994
NCI-H2405	0.664
HOP-62	0.344
HCC-44	1.1
NCI-H522	0.717
LU99A	0.67
BEN	0.99
HARA	0.805
SW 900	0.986
HCC-78	0.688
NCI-H322M	0.531
LCLC-97TM1	0.175
NCI-H2009	0.306

Same assay, conditions: first compound 0.03162 µM

Cell Line	relative viability
NCI-H2342	0.784
NCI-H727	0.414
NCI-H1650	0.538
NCI-H1993	0.496
SW 1573	0.494
NCI-H838	0.443
LCLC-103H	0.682
NCI-H520	0.494
NCI-H2126	0.594
EMC-BAC-2	0.835
NCI-H2085	0.585
HCC-366	0.281
NCI-H1666	0.842
NCI-H596	0.811
LK-2	0.67
NCI-H2087	0.187
SK-MES-1	0.607
H3255	0.546

Cell Line	relative viability
COR-L23	0.643
COR-L 105	0.382
LOU-NH91	0.774
ChaGo-K-1	0.884
NCI-H2170	0.868
NCI-H2405	0.643
HOP-62	0.347
HCC-44	1.04
NCI-H522	0.835
LU99A	0.53
BEN	1.04
HARA	0.551
SW 900	0.744
HCC-78	0.712
NCI-H322M	0.444
LCLC-97TM1	0.173
NCI-H2009	0.287

Same assay, conditions: first compound 0.3162 µM

Cell Line	relative viability
NCI-H2342	0.809
NCI-H727	0.37
NCI-H1650	0.449
NCI-H1993	0.474
SW 1573	0.37
NCI-H838	0.529
LCLC-103H	0.72
NCI-H520	0.673
NCI-H2126	0.554
EMC-BAC-2	0.845
NCI-H2085	0.595
HCC-366	0.316
NCI-H1666	0.811
NCI-H596	0.662
LK-2	0.716
NCI-H2087	0.135
NCI-H1648	0.366
SK-MES-1	0.537

Cell Line	relative viability
H3255	0.715
COR-L23	0.469
COR-L 105	0.427
LOU-NH91	0.792
ChaGo-K-1	0.936
NCI-H2170	0.91
NCI-H2405	0.61
HOP-62	0.401
HCC-44	1.06
NCI-H522	0.757
LU99A	0.52
BEN	0.885
HARA	0.796
SW 900	0.659
HCC-78	0.963
NCI-H322M	0.539
LCLC-97TM1	0.224
NCI-H2009	0.25

Same assay, conditions: first compound 1 µM

Cell Line	relative viability
NCI-H2342	0.817
NCI-H727	0.384
NCI-H1650	0.223
NCI-H1993	0.453
SW 1573	0.109
NCI-H838	0.0788
LCLC-103H	0.587
NCI-H520	0.229
NCI-H2126	0.44
EMC-BAC-2	0.376
NCI-H2085	0.367
HCC-366	0.17
NCI-H1666	0.593
NCI-H596	0.662
LK-2	0.271
NCI-H2087	0.119
NCI-H1648	0.335
SK-MES-1	0.461

Cell Line	relative viability
H3255	0.574
COR-L23	0.103
COR-L 105	0.296
LOU-NH91	0.726
ChaGo-K-1	0.795
NCI-H2170	0.708
NCI-H2405	0.299
HOP-62	0.176
HCC-44	0.716
NCI-H522	0.717
LU99A	0.24
BEN	1.11
HARA	0.313
SW 900	0.401
HCC-78	0.46
NCI-H322M	0.525
LCLC-97TM1	0.117
NCI-H2009	0.181
